Laboratory results: ChEMBL document CHEMBL1201862, “PubChem BioAssay data set” (2004)
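1) Cells in 96-well plates. 2) Compound, 48 h, 5 concentrations. 3) Linear interpolation between surrounding doses. 4) Unreached endpoint = highest concentration. Abbreviation: GI50, concentration required for 50% inhibition of growth.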 Active and inactive are the calls of the source. No stated cut-off is given here; in the data, active = GI50 up to about 1.1 µM and inactive = higher.

Legend:
Test in all cases: NCI anticancer screen, dose series, 48 h
[1] = test system: BT-549
[2] = test system: HCT-15
[3] = test system: MCF7
[4] = test system: RPMI-8226
[5] = test system: SK-MEL-28
[6] = test system: HT-29
[7] = test system: NCI-H522
[8] = test system: NCI/ADR-RES
[9] = test system: OVCAR-8
[10] = test system: SNB-19
[11] = test system: CCRF-CEM
[12] = test system: MDA-N
[13] = test system: TK-10
[14] = test system: T47D
[15] = test system: SK-OV-3
[16] = test system: M14
[17] = test system: OVCAR-5
[18] = test system: DU-145
[19] = test system: OVCAR-4
[20] = test system: HOP-92

| SMILES | GI50 [1] | GI50 [2] [µM] | GI50 [3] | GI50 [4] | GI50 [5] | GI50 [6] | GI50 [7] | GI50 [8] | GI50 [9] | GI50 [10] | GI50 [11] | GI50 [12] | GI50 [13] | GI50 [14] | GI50 [15] | GI50 [16] | GI50 [17] | GI50 [18] | GI50 [19] | GI50 [20] |
| --- | --- | --- | --- | --- | --- | --- | --- | --- | --- | --- | --- | --- | --- | --- | --- | --- | --- | --- | --- | --- |
| CC(C)(C)C1=CC(=C2C=Cc3ccccc3O2)C=C(C(C)(C)C)C1=O | 6.59 µM (inactive) | 3.13 | 1.86 µM (inactive) | 2.15 µM (inactive) | 6.25 µM (inactive) | 3.76 µM (inactive) | 3.53 µM (inactive) | 3.81 µM (inactive) | 6.37 µM (inactive) | 9.16 µM (inactive) | 2.09 µM (inactive) | 2.31 µM (inactive) | 3.87 µM (inactive) | 1.77 µM (inactive) | 13.6 µM (inactive) | 3.55 µM (inactive) | 6.7 µM (inactive) | 4.71 µM (inactive) | 2.41 µM (inactive) | 13.9 µM (inactive) |
| O=C1C=CC(=O)C(N(CCO)CCO)=C1.O=C1C=CC2(O)OCCN(CCO)C2=C1 | > 100 µM (inactive) | > 100 | > 100 µM (inactive) | 91.6 µM (inactive) | > 100 µM (inactive) | > 100 µM (inactive) | > 100 µM (inactive) | > 100 µM (inactive) | > 100 µM (inactive) | > 100 µM (inactive) | > 100 µM (inactive) | > 100 µM (inactive) | > 100 µM (inactive) | > 100 µM (inactive) | > 100 µM (inactive) | > 100 µM (inactive) | > 100 µM (inactive) | > 100 µM (inactive) | > 100 µM (inactive) | > 100 µM (inactive) |
| Oc1ccccc1/C=N/c1ccc(-c2nc3ccccc3[nH]2)cc1 | 12.8 µM (inactive) | 29.6 | 20.7 µM (inactive) | 26.6 µM (inactive) | > 100 µM (inactive) | 81.8 µM (inactive) | 63.5 µM (inactive) | 4.53 µM (inactive) | 47.1 µM (inactive) | > 100 µM (inactive) | 22.5 µM (inactive) | 54.7 µM (inactive) | > 100 µM (inactive) | 10.4 µM (inactive) | > 100 µM (inactive) | 63.4 µM (inactive) | > 100 µM (inactive) | 65.8 µM (inactive) | > 100 µM (inactive) | 22.9 µM (inactive) |
| CC[C@@]1(O)C(=O)OCc2c1cc1n(c2=O)Cc2c-1nc1ccccc1c2/C=N/NC(=O)C[N+](C)(C)C | 15.4 µM (inactive) | 14 | 0.192 µM (active) | 4.93 µM (inactive) | 15.4 µM (inactive) | 13.2 µM (inactive) | 2.26 µM (inactive) | 1.65 µM (inactive) | 1.98 µM (inactive) | 0.75 µM (active) | 0.123 µM (active) | 9.62 µM (inactive) | > 80.2 µM (inactive) | 0.239 µM (active) | 2.1 µM (inactive) | 1 µM (active) | 30.4 µM (inactive) | 0.458 µM (active) | 41.2 µM (inactive) | 3.68 µM (inactive) |
| C[C@]12CC[C@H]3[C@@H](CC=C4C[C@@H](O)CC[C@@]43C)[C@@H]1C[C@H](N1CCOCC1)[C@@H]2O | 27.9 µM (inactive) | > 100 | > 100 µM (inactive) | > 100 µM (inactive) | > 100 µM (inactive) | 6.34 µM (inactive) | > 100 µM (inactive) | > 100 µM (inactive) | > 100 µM (inactive) | > 100 µM (inactive) | > 100 µM (inactive) | > 100 µM (inactive) | > 100 µM (inactive) | > 100 µM (inactive) | > 100 µM (inactive) | > 100 µM (inactive) | > 100 µM (inactive) | > 100 µM (inactive) | > 100 µM (inactive) | > 100 µM (inactive) |
